Results taken from patent publication US8685992B2, “Histone deacetylase inhibitors based simultaneously on trisubstituted 1H-pyrroles and aromatic and heteroaromatic spacers” (Universidad del País Vasco, priority 2009, dated 2014).
pIC50: −log10 of the molar value.

How the values were obtained:
KB = test: Cancer cell growth inhibition, KB; format: cell-based, human; settings: Homo sapiens, Oral Cancer, 72 h treatment
Experimental: (§1) Cell culture-based assays were used to evaluate the ability of compounds of the invention to inhibit cancer cell growth inhibition.
(§2) Cells were obtained from the American Type Culture Collection (ATCC). Cells were cultured at 37° C. with 5% CO2 in the appropriate growth medium (see table below), and harvested respectively during the logarithmic growth period and counted with hemocytometer. The cell viability was over 98% by trypan blue exclusion. Cell concentrations were adjusted between 5×10^4 and 2×10^5 cells/ml with respective medium.
(§3) Stock solutions of test compounds and positive drugs Doxorubicin (Zhejiang, Haizheng, China), Paclitaxel (Beijing, Xiehe, China), Vincristin (Shenzhen Wanle, China), 5-FU (Tianjin jinyaoanjisuan, China), Irinotecan (Jiangsu Hengrui, China) and Cisplatin Nanjing zhiyao, China) were prepared in dimethyl sulphoxide (DMSO) or PBS at 20 mM.
(§4) All treatments were performed in triplicate. 10 μl drug solution was added to each well and incubated for 72 hours. At the end of the incubation, 20 μl of the freshly prepared MTS/PMS mixture solution was added to each well and incubated for 4 hours at 37° C. in a humidified, 5% CO2 atmosphere. Absorbance was read at 490 nm using SpectraMAX Plus microplate spectrophotometer. […] In order to calculate IC50, a dose-responsive curve was fitted using nonlinear regression model with a sigmoidal dose response.

Human HDAC3/NcoR2 = Human HDAC3/NcoR2 (Homo sapiens (Human), UniProt O15379); test: HDAC3 fluorogenic peptide deacetylation assay; format: biochemical; settings: human HDAC3/NcoR2, 50 μM substrate, 30° C., 2 h; read-out: IC50 (nM) of enzyme activity HDAC3
Chain of Human HDAC3/NcoR2 (O15379 whole entry): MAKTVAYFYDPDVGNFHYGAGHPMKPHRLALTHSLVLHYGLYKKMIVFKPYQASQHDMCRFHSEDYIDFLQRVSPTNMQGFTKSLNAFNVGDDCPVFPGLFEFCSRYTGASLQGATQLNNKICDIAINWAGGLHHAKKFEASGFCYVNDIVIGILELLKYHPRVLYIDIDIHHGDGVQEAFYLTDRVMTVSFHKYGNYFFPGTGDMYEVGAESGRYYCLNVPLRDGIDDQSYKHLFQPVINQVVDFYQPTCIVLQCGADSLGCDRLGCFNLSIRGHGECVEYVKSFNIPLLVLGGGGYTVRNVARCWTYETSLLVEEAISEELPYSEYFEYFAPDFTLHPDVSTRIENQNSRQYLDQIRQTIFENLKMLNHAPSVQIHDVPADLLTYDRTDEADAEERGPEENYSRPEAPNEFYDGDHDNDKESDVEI
Chain of Human HDAC3/NcoR2 (Q9Y618 395-489 partner): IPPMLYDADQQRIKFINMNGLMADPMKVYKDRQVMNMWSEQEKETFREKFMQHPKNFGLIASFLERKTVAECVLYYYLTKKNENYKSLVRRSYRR

786-O = test: Cancer cell growth inhibition, 786-O; format: cell-based, human; settings: Homo sapiens, 786-0, Kindney Cancer, 72 h treatment
Experimental: as §1, §2, §3, §4

DLD-1 = test: Cancer cell growth inhibition, DLD-1; format: cell-based, human; settings: Homo sapiens; DLD-1, Colorectal Cancer, 72 h treatment
Experimental: as §1, §2, §3, §4

HT-29 = test: Cancer cell growth inhibition, HT-29; format: cell-based, human; settings: Homo sapiens; HT-29, Colorectal Cancer, 72 h treatment
Experimental: as §1, §2, §3, §4

MCF-7-FL = test: Cancer cell growth inhibition, MCF-7-FL; format: cell-based; settings: Homo sapiens, Breast Cancer, 72 h treatment
Experimental: as §1, §2, §3, §4

Bx-PC-3 = test: Cancer cell growth inhibition, Bx-PC-3; format: cell-based, human; settings: Homo sapiens, BXPC-3; Bx-PC-3, Pancreatic Cancer, 72 h treatment
Experimental: as §1, §2, §3, §4

Hep3B = test: Cancer cell growth inhibition, Hep3B; format: cell-based, human; settings: Homo sapiens, Liver Cancer, 72 h treatment
Experimental: as §1, §2, §3, §4

K562 = test: Cancer cell growth inhibition, K562; format: cell-based, human; settings: Homo sapiens; K562, CML, 72 h treatment
Experimental: as §1
as §2, with “The cell viability was over 98% by trypan blue exclusion.” left out
as §3, §4

BT474 = test: Cancer cell growth inhibition, BT474; format: cell-based; settings: Homo sapiens, BT-474; BT474, Breast Cancer, 72 h treatment
Experimental: as §1, §2, §3, §4

SW620 = test: Cancer cell growth inhibition, SW620; format: cell-based, human; settings: Homo sapiens, SW-620; SW620, Colorectal Cancer, 72 h treatment
Experimental: as §1, §2, §3, §4

PC-3 = test: Cancer cell growth inhibition, PC-3; format: cell-based, human; settings: Homo sapiens; PC-3, Prostate Cancer, 72 h treatment
Experimental: as §1, §2, §3, §4

MCG803 = test: Cancer cell growth inhibition, MCG803; format: cell-based, human; settings: Homo sapiens; MCG803, Gastric Cancer, 72 h treatment
Experimental: as §1, §2, §3, §4

LNCaP = test: Cancer cell growth inhibition, LNCaP; format: cell-based, human; settings: Homo sapiens, Prostate Cancer, 72 h treatment
Experimental: as §1, §2, §3, §4

LoVo = test: Cancer cell growth inhibition, LoVo; format: cell-based, human; settings: Homo sapiens, Colorectal Cancer, 72 h treatment
Experimental: as §1, §2, §3, §4

DU145 = test: Cancer cell growth inhibition, DU145; format: cell-based, human; settings: Homo sapiens, DU-145; DU145, Prostate Cancer, 72 h treatment
Experimental: as §1, §2, §3, §4

Human HDAC2 = Human HDAC2 (Homo sapiens (Human), UniProt Q92769); test: HDAC2 fluorogenic peptide deacetylation assay; format: biochemical; settings: human HDAC2, 50 μM substrate, 30° C., 2 h; read-out: IC50 (nM) of enzyme activity HDAC2
Chain of Human HDAC2 (Q92769 whole entry): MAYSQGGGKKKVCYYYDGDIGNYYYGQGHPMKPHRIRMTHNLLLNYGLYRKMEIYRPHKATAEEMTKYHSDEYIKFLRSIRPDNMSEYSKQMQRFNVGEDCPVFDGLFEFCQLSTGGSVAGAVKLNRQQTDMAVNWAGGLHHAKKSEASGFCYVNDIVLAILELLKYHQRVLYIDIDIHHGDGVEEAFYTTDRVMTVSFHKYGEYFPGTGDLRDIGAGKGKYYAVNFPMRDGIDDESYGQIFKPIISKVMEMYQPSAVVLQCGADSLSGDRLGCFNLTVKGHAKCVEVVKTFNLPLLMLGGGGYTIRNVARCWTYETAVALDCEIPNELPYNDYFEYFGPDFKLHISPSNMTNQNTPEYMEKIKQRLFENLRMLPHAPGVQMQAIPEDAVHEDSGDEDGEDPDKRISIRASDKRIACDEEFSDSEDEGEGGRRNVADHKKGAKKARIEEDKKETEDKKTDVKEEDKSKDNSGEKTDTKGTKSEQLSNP

Human HDAC1 = Human HDAC1 (Homo sapiens (Human), UniProt Q13547); test: HDAC1 fluorogenic peptide deacetylation assay; format: biochemical; settings: human HDAC1, 50 μM substrate, 30° C., 2 h; read-out: IC50 (nM) of enzyme activity HDAC1
Chain of Human HDAC1 (Q13547 whole entry): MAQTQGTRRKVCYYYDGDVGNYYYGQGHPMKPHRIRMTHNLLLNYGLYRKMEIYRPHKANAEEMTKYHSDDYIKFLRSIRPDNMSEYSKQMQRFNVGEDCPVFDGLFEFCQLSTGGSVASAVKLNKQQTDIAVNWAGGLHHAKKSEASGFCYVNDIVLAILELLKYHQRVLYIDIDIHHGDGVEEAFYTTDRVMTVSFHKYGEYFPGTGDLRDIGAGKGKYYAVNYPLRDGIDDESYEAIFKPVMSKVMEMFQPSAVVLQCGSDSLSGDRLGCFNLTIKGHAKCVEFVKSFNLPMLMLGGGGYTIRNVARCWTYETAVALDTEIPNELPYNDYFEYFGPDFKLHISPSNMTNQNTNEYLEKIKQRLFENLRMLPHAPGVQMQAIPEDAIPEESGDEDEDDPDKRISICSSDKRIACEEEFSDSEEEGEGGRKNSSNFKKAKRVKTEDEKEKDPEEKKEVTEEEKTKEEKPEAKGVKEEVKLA

Human HDAC8 = Human HDAC8 (Homo sapiens (Human), UniProt Q9BY41); test: HDAC8 fluorogenic peptide deacetylation assay; format: biochemical; settings: human HDAC8, 50 μM substrate, 30° C., 2 h; read-out: IC50 (nM) of enzyme activity HDAC8
Chain of Human HDAC8 (Q9BY41 whole entry): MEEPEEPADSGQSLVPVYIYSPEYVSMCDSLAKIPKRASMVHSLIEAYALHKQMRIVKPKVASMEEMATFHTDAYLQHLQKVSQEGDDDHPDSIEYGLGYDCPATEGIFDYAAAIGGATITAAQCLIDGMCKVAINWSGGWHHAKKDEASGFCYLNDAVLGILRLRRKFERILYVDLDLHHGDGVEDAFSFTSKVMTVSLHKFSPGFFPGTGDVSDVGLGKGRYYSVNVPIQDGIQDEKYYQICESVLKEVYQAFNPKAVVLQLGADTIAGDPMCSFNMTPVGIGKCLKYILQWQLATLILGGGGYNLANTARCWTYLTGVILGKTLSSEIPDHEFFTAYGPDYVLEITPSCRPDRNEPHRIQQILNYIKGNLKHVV

SK-MES-1 = test: Cancer cell growth inhibition, SK-MES-1; format: cell-based, human; settings: Homo sapiens; SK-MES-1, Lung Cancer, 72 h treatment
Experimental: as §1, §2, §3, §4

MCF-7-218 = test: Cancer cell growth inhibition, MCF-7-218; format: cell-based; settings: Homo sapiens; MCF-7-218, Breast Cancer, 72 h treatment
Experimental: as §1, §2, §3, §4

MIAPACA-2 = test: Cancer cell growth inhibition, MIAPACA-2; format: cell-based, human; settings: Homo sapiens, MIA PaCa-2; MIAPACA-2, Pancreatic Cancer, 72 h treatment
Experimental: as §1, §2, §3, §4

143b = test: Cancer cell growth inhibition, 143b; format: cell-based; settings: Homo sapiens, Osteosarcoma, 72 h treatment
Experimental: as §1, §2, §3, §4

[1] = tested on: Nuclear Extract from HeLa Cells; test: HeLa Nuclear Extract HDAC assay; format: biochemical, human; settings: 50 μM substrate, 30° C., 2 h, read-out: IC50 (nM) of enzyme activity HeLa
SK-MEL-5 = test: Cancer cell growth inhibition, SK-MEL-5; format: cell-based, human; settings: Homo sapiens; SK-MEL-5, Melanoma, 72 h treatment
Experimental: as §1, §2, §3, §4

PANC-1 = test: Cancer cell growth inhibition, PANC-1; format: cell-based, human; settings: Homo sapiens; PANC-1, Pancreatic Cancer, 72 h treatment
Experimental: as §1, §2, §3, §4

Human HDAC10 = Human HDAC10 (Homo sapiens (Human), UniProt Q969S8); test: HDAC10 fluorogenic peptide deacetylation assay; format: biochemical; settings: human HDAC10, 50 μM substrate, 30° C., 2 h; read-out: IC50 (nM) of enzyme activity HDAC10
Chain of Human HDAC10 (Q969S8 1-631): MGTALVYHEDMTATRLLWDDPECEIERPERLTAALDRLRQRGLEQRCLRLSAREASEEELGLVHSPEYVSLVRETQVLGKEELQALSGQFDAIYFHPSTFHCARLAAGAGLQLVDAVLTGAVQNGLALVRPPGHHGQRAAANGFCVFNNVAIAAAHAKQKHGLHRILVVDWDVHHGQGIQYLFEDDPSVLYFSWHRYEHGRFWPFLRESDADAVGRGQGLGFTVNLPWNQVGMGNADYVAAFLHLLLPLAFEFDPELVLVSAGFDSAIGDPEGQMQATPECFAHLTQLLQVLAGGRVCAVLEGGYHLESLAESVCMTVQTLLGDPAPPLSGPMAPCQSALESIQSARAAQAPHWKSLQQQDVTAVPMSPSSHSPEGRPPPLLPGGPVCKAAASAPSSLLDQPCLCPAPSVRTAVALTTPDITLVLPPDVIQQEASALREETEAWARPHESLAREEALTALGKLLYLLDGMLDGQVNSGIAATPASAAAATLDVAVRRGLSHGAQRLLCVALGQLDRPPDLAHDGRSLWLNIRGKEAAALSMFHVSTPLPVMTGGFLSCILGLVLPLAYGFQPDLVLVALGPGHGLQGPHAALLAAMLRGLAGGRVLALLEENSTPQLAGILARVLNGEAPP

| pIC50 (KB) | IC50 (Human HDAC3/NcoR2) [nM] | pIC50 (786-O) | pIC50 (DLD-1) | pIC50 (HT-29) | pIC50 (Bx-PC-3) | pIC50 (Hep3B) | pIC50 (BT474) | pIC50 (SW620) | pIC50 (PC-3) | pIC50 (MCG803) | pIC50 (LNCaP) | pIC50 (LoVo) | pIC50 (DU145) | IC50 (Human HDAC2) [nM] | IC50 (Human HDAC1) [nM] | IC50 (Human HDAC8) [nM] | pIC50 (SK-MES-1) | pIC50 (MIAPACA-2) | pIC50 (143b) | SMILES | also measured |
| --- | --- | --- | --- | --- | --- | --- | --- | --- | --- | --- | --- | --- | --- | --- | --- | --- | --- | --- | --- | --- | --- |
| 5.53 | 298 | 4.87 | 5.16 | 4.97 | 5.11 | 5.50 | 5.44 | 5.74 | 5.52 | 5.96 | 5.00 | 5.72 | 5.35 | 909 | 378 | 227 | 5.11 | 5.55 | 4.89 | O=C(NO)c1ccc(CNC(=O)c2[nH]c(-c3ccoc3)cc2-c2ccc(O)cc2)cc1 [Example 9, 5-(3-furyl)-N-{4-[(hydroxyamino)carbonyl]benzyl}-3-(4-hydroxyphenyl)-1H-pyrrole-2-carboxamide] | pIC50 (MCF-7-FL): 5.11; pIC50 (K562): 5.98; pIC50 (MCF-7-218): 4.89; IC50 [1]: 26 nM; pIC50 (SK-MEL-5): 5.48; pIC50 (PANC-1): 4.97 |
| 6.50 | 75 | 5.72 | 6.23 | 5.99 | 6.11 | 6.21 | 6.92 | 6.42 | 6.38 | 6.13 | 6.44 | 6.37 | 6.47 | 157 | 71 | 148 | 6.23 | 6.06 | 5.59 | COc1ccc(-c2cc(-c3ccoc3)c(C(=O)NCc3ccc(C(=O)NO)cc3)[nH]2)cc1 [Example 27, 3-(3-furyl)-N-{4-[(hydroxyamino)carbonyl]benzyl}-5-(4-methoxyphenyl)-1H-pyrrole-2-carboxamide] | IC50 [1]: 3.9 nM; pIC50 (SK-MEL-5): 6.59; pIC50 (PANC-1): 6.02 |
| 6.15 | 124 | 5.06 | 4.61 | 5.24 | 5.17 | 5.57 | 5.79 | 5.82 | 5.62 | 5.48 | 5.39 | 6.30 | 5.82 | 318 | 84.2 | 64.1 | 4.73 | 6.37 | 5.58 | O=C(NO)c1ccc(CNC(=O)c2[nH]c(-c3ccc(O)cc3)cc2-c2ccsc2)cc1 [Example 14, N-{4-[(hydroxyamino)carbonyl]benzyl}-5-(4-hydroxyphenyl)-3-(3-thienyl)-1H-pyrrole-2-carboxamide] | pIC50 (MCF-7-FL): 5.18; pIC50 (K562): 5.89; IC50 (Human HDAC10): 316 nM; pIC50 (MCF-7-218): 4.43; IC50 [1]: 6.7 nM; pIC50 (SK-MEL-5): 6.07; pIC50 (PANC-1): 5.01 |
| 6.74 | 46.1 | 5.64 | 5.35 | 5.64 | 5.65 | 6.07 | 6.35 | 6.48 | 6.55 | 5.70 | 5.76 | 6.82 | 6.34 | 144 | 49.9 | 74.8 | 5.45 | 6.57 | 5.71 | O=C(NO)c1ccc(CNC(=O)c2[nH]c(-c3ccc(O)cc3)cc2-c2ccoc2)cc1 [Example 15, 3-(3-furyl)-N-{4-[(hydroxyamino)carbonyl]benzyl}-5-(4-hydroxyphenyl)-1H-pyrrole-2-carboxamide] | pIC50 (MCF-7-FL): 5.48; pIC50 (K562): 6.13; IC50 (Human HDAC10): 35 nM; pIC50 (MCF-7-218): 4.58; IC50 [1]: 3.4 nM; pIC50 (SK-MEL-5): 6.53; pIC50 (PANC-1): 5.19 |
| 5.47 | 273 | 5.00 | 5.49 | 4.59 | 5.08 | 5.37 | 4.89 | 5.70 | 5.88 | 5.22 | 5.51 | 5.41 | 5.73 | 392 | 184 | 174 | 5.75 | 5.12 | 4.96 | COc1ccc(-c2cc(-c3ccsc3)c(C(=O)NCc3ccc(C(=O)NO)cc3)[nH]2)cc1 [Example 28, N-{4-[(hydroxyamino)carbonyl]benzyl}-5-(4-methoxyphenyl)-3-(3-thienyl)-1H-pyrrole-2-carboxamide] | pIC50 (K562): 5.86; IC50 (Human HDAC10): 723 nM; IC50 [1]: 22 nM; pIC50 (SK-MEL-5): 5.42; pIC50 (PANC-1): 4.94 |
